Test [1] deals with 5-HT7 (h) (Homo sapiens, UniProt P34969). The note with it: range of concentrations; FIG. 2. On the procedure:
The apparent dissociation constants for antagonists Kb were calculated using the modified Cheng Prusoff equation.

The target in test [2] is noradrenergic reuptake transporters (Homo sapiens, UniProt P23975). The settings on record: Tatsumi et al [1997]; cited from earlier work.
Test [3] deals with serotonin reuptake inhibitor (Homo sapiens, UniProt P31645). The settings on record: very weak activity; Tatsumi et al [1997]; cited from earlier work.
Test [4] deals with 5-HT5A (h) (Homo sapiens, UniProt P47898). Kind of test: biochemical. The note with it: read-out: % Inhib. The text has this: (§1) Briefly, recombinant 5-HT7 receptors were expressed in a CHO cell line. The receptors were then saturated with a tritiated receptor-specific ligand at concentrations known to be saturating.
The target in test [5] is 5-HT6 (h) (Homo sapiens, UniProt P50406). In words: biochemical. The note with it: read-out: % Inhib.
From the text: as §1

The target in test [6] is 5-HT1D (Rattus norvegicus, UniProt P28565). In words: biochemical. The note with it: read-out: % Inhib.
From the text: as §1

Test [7] addresses 5-HT4e (h) (Homo sapiens, UniProt Q13639). Kind of test: biochemical. The note with it: read-out: % Inhib.
From the text: as §1

Test [8] deals with 5-HT3 (h) (Homo sapiens, UniProt P46098). In words: biochemical. The note with it: read-out: % Inhib.
From the text: as §1

The conditions of test [9]: background statement; cited from earlier work.

Sequence of noradrenergic reuptake transporters (P23975 whole entry): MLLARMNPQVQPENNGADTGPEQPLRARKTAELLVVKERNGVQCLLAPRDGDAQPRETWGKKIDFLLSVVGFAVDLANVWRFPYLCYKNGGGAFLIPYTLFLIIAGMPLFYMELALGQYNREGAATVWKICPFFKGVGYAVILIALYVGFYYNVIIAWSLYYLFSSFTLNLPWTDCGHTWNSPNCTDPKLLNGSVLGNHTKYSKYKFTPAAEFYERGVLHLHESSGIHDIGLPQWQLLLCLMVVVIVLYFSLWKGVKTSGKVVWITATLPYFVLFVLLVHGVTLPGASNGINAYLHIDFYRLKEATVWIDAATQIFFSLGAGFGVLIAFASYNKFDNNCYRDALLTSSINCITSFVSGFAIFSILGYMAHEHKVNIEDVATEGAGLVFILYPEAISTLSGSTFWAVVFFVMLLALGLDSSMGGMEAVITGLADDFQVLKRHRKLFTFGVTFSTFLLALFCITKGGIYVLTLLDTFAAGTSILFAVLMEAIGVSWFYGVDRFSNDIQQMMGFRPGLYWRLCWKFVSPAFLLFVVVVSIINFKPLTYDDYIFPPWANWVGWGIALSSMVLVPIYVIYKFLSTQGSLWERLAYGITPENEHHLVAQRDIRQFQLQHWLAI
Sequence of serotonin reuptake inhibitor (P31645 whole entry): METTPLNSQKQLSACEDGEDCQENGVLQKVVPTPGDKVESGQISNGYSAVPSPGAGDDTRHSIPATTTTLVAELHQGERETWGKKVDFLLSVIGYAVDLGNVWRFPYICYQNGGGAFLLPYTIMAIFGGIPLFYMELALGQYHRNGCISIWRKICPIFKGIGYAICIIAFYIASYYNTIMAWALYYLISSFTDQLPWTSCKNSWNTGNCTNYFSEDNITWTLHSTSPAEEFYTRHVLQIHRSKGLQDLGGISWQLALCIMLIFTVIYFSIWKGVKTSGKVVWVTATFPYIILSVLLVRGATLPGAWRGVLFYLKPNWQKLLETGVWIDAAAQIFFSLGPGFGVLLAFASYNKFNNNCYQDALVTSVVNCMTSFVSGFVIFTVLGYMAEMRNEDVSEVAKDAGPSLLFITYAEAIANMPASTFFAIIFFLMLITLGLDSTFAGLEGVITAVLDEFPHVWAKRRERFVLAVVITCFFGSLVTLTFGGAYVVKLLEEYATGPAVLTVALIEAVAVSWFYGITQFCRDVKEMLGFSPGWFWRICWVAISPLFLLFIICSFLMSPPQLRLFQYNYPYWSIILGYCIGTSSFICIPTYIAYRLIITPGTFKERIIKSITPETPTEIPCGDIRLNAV
Sequence of 5-HT5A (h) (P47898 whole entry): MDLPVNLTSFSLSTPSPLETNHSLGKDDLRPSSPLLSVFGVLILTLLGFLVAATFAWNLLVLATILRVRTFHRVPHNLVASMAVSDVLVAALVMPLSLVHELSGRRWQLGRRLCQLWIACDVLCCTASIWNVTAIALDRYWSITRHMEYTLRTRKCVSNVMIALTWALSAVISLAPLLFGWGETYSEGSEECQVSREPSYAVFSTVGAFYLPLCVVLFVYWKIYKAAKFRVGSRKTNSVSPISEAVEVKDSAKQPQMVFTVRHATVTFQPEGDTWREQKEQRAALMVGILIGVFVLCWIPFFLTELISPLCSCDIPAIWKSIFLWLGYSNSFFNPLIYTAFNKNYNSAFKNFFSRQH
Sequence of 5-HT4e (h) (Q13639 1-378 isoform Q13639-5): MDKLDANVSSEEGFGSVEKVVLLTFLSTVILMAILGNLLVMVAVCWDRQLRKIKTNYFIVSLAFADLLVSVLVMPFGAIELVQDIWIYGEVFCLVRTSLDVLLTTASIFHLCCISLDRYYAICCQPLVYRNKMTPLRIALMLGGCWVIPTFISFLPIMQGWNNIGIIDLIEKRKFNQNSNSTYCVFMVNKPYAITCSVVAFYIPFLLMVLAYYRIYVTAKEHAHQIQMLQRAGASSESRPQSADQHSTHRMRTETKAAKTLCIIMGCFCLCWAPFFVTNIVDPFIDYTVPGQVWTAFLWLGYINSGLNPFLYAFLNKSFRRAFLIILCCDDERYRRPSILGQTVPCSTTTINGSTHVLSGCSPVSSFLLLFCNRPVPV
Sequence of 5-HT3 (h) (P46098 24-478): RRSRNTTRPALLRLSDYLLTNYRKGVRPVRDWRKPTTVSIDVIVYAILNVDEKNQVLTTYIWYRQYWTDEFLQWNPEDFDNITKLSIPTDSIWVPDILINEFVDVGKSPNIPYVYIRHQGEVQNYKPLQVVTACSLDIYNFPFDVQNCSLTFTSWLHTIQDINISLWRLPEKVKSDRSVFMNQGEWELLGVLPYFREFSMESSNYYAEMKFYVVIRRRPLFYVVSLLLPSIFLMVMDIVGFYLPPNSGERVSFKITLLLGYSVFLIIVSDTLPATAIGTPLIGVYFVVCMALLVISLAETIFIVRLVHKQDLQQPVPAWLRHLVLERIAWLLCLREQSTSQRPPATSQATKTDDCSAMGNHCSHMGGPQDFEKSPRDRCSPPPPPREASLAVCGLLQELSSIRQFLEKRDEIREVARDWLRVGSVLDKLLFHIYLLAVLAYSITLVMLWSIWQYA
Sequence of 5-HT6 (h) (P50406 whole entry): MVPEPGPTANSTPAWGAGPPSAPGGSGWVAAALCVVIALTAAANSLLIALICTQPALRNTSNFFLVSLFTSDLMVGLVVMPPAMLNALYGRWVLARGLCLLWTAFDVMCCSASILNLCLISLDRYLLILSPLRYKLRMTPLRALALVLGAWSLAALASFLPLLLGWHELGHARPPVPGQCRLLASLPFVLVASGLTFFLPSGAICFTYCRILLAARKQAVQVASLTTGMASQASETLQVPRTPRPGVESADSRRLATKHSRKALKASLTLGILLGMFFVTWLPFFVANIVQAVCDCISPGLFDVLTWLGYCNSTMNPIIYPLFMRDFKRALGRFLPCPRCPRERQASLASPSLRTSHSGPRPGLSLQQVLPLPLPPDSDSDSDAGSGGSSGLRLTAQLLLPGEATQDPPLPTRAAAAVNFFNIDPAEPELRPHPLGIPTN
Sequence of 5-HT1D (P28565 whole entry): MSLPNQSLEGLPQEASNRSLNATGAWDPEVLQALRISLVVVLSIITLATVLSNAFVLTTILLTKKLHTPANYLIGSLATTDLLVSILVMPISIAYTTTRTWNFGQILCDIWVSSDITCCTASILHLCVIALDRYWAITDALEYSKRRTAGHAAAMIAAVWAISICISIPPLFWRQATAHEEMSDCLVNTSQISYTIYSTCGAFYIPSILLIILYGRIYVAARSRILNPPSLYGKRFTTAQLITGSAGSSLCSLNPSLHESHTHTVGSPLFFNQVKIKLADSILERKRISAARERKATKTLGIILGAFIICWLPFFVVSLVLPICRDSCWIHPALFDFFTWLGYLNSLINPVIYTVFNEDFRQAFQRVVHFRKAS
Sequence of 5-HT7 (h) (P34969 whole entry): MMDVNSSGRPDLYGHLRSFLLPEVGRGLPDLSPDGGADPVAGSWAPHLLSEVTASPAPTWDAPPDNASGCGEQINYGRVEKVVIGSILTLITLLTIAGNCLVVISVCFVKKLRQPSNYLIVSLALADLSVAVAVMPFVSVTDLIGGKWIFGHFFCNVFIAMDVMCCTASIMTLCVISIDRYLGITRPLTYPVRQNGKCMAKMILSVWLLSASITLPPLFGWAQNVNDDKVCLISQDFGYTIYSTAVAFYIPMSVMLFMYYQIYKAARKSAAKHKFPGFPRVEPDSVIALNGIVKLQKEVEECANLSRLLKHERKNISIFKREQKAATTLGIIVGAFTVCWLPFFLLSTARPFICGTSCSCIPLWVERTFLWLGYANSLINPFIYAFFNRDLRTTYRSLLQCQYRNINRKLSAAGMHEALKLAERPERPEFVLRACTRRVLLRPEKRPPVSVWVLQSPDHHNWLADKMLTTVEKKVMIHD

On to `CCOc1ccccc1OCC1CNCCO1` (racemic) [viloxazine, Viloxazine], for which the “agonist effect (cAMP response)” value in test [1] is on record as “no measurable response”. In addition, the “inhibition of noradrenergic reuptake transporters” value in test [2] is reported as 155 nM. Further, the “activity at the serotonin reuptake inhibitor” value in test [3] was 17.3 μm. The inhibition at 0.001 µM in [4] is 15%; in test [6] it was 18%. Besides, in test [5], the inhibition at 0.002 µM amounted to 6%. Besides, the inhibition at 0.0003 µM in test [7] turned out to be 16%. The inhibition at 0.0005 µM in test [8] came out at 18%.

In the case of `CCOc1ccccc1OC[C@@H]1CNCCO1` (single isomer, unassigned) [S(−)-isomer], the “pharmacological activity relative to R(+)-isomer” value in [9] was “five times more pharmacologically active than the R(+)-isomer”.

Source of the values: patent publication US20120115871A1, “METHOD OF TREATMENT OF DEPRESSION” (Supemus Pharmaceuticals, Inc, priority 2009, published 2012).
